Laboratory results taken from ChEMBL document CHEMBL2396625 (Bioorg Med Chem Lett, 2013).
Calls of active or inactive are those of the source. The rule behind the calls is not given here.

How the values were obtained:
[1] = target: T1, Dual specificity protein phosphatase 22 (Homo sapiens) (UniProt Q9NRW4); experiment: Inhibition of DUSP22 (unknown origin) using DiFMUP as substrate at 5 uM relative to control
T1 sequence (whole entry): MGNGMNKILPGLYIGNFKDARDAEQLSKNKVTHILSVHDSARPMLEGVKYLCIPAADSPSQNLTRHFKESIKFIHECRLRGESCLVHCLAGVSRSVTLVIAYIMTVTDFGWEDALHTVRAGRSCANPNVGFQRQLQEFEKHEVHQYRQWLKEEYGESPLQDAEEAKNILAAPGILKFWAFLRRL

[2] = target: T2, Protein tyrosine phosphatase type IVA 3 (Homo sapiens, UniProt O75365); experiment: Inhibition of human His6-tagged full length PRL3 assessed as inhibition of DiFMUP dephosphorylation at 5 ug/ml relative to control
[3] = target: T2, Protein tyrosine phosphatase type IVA 3; experiment: Inhibition of human His6-tagged full length PRL3 assessed as inhibition of DiFMUP dephosphorylation
DLD-1 [4] = experiment: Cytotoxicity against human DLD1 cells overexpressing PRL3 assessed as growth inhibition at 50 uM after 24 hrs by WST-1 assay; type: cell-based; conditions: dld-1, 24 h
[5] = Cytotoxicity against human DLD1 cells overexpressing PRL3 assessed as cell viability at 10 ug/ml after 24 hrs by WST-1 assay relative to control; type: cell-based; conditions: DLD-1 cells overexpressing PRL3, read-out: Activity
DLD-1 [6] = experiment: Antiinvasive activity against human DLD1 cells overexpressing PRL3 assessed as decrease in snail expression at […] after 24 hrs by immunoblot analysis; type: functional, cell-based
MDA-MB-231 = experiment: Antimigratory activity against human MDA-MB-231 cells expressing low level of PRL3 at 10 to 20 uM after 20 hrs by crystal violet staining-based light microscopic analysis; type: functional, cell-based
DLD-1 [7] = experiment: Antiinvasive activity against human DLD1 cells overexpressing PRL3 assessed as increase in E-cadherin expression at 10 to 50 uM after 24 hrs by immunoblot analysis; type: functional, cell-based
[8] = target: T3, Dual specificity protein phosphatase 10 (Homo sapiens) (UniProt Q9Y6W6); experiment: Inhibition of MKP5 (unknown origin) using DiFMUP as substrate at 5 uM relative to control
T3 sequence (whole entry): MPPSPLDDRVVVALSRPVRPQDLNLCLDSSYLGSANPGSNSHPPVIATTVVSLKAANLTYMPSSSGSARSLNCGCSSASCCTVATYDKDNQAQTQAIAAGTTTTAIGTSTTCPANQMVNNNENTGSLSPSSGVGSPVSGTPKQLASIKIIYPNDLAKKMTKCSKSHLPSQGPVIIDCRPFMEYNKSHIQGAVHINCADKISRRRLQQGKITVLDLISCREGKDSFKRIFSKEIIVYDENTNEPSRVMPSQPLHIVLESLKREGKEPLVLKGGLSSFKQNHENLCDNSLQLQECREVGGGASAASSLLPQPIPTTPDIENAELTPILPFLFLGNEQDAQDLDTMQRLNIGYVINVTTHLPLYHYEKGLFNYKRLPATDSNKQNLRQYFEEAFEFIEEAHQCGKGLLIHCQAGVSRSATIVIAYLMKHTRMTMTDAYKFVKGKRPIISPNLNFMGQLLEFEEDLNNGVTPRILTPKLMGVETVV

DLD-1 [9] = experiment: Antimigratory activity against human DLD1 cells overexpressing PRL3 at 10 ug/ml after 20 hrs by crystal violet staining-based light microscopic analysis relative to control; type: functional; conditions: DLD-1, 20 h
MIA PaCa-2 = experiment: Antimigratory activity against human MIAPaCa2 cells overexpressing PRL3 at 10 to 20 uM after 20 hrs by crystal violet staining-based light microscopic analysis; type: functional, cell-based
[10] = target: Tyrosine-protein phosphatase YopH (Yersinia enterocolitica) (UniProt P15273); experiment: Inhibition of yopH (unknown origin) using DiFMUP as substrate at 5 uM relative to control
[11] = target: Dual specificity protein phosphatase 3 (Homo sapiens) (UniProt P51452); experiment: Inhibition of VHR (unknown origin) using DiFMUP as substrate at 5 uM relative to control
[12] = target: T2, Protein tyrosine phosphatase type IVA 3; experiment: Inhibition of PRL3 in human DLD1 cells assessed as increase in phospho-ezrin level at 20 uM by immunoblot analysis relative to control; type: cell-based; conditions: DLD-1
Homo sapiens = species: Homo sapiens; experiment: Inhibition of PP2A (unknown origin) using DiFMUP as substrate at 5 uM relative to control
[13] = target: T2, Protein tyrosine phosphatase type IVA 3; experiment: Inhibition of PRL3 in human DLD1 cells assessed as increase in phospho-KRT8 level at 10 to 20 uM by immunoblot analysis; type: cell-based; conditions: DLD-1
A375P = experiment: Antimigratory activity against human A375P cells overexpressing PRL3 at 10 to 20 uM after 20 hrs by crystal violet staining-based light microscopic analysis; type: functional, cell-based
[14] = target: T2, Protein tyrosine phosphatase type IVA 3; experiment: Inhibition of His6-tagged full length human PRL3 using DiFMUP as substrate at 5 uM relative to control
[15] = target: T4, Tyrosine-protein phosphatase non-receptor type 11 (Homo sapiens) (UniProt Q06124); experiment: Inhibition of SHP2 (unknown origin) using DiFMUP as substrate at 5 uM relative to control
T4 sequence (whole entry): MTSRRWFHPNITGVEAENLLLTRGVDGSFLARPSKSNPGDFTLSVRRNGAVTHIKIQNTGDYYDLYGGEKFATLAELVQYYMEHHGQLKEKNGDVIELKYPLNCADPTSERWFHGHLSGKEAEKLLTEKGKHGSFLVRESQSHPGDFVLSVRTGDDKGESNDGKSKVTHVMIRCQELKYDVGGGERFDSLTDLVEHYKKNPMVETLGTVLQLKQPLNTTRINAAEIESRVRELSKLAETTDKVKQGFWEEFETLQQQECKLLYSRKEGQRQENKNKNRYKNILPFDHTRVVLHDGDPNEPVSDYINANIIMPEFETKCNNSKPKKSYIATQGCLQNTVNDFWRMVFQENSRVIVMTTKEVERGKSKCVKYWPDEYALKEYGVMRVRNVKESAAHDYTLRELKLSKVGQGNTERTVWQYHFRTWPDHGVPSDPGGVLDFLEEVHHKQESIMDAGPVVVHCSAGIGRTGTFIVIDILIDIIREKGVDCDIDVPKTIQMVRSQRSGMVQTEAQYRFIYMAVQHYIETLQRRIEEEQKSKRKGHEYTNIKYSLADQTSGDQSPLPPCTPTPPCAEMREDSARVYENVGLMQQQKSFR

[16] = target: T5, Low molecular weight phosphotyrosine protein phosphatase (Homo sapiens) (UniProt P24666); experiment: Inhibition of LMPTPA (unknown origin) using DiFMUP as substrate at 5 uM relative to control
T5 sequence (whole entry): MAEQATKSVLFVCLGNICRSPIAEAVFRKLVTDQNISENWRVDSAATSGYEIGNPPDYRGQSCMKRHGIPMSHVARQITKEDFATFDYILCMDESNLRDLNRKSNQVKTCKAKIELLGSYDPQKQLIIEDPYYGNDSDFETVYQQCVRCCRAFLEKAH

T2 sequence (O75365 whole entry): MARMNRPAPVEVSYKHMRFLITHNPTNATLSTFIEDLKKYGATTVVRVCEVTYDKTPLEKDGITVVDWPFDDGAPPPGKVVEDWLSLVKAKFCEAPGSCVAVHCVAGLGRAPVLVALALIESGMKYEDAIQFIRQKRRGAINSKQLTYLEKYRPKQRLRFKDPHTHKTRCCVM
Chain of Dual specificity protein phosphatase 3 (Homo sapiens) (P51452 whole entry, looked up): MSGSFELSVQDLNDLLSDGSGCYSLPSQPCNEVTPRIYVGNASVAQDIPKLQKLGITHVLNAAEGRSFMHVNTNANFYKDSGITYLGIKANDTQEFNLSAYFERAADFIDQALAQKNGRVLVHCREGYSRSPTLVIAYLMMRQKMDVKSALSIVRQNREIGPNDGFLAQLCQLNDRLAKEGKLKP

inhibition [1] | inhibition [8] | inhibition [10] | inhibition [11] | inhibition (Homo sapiens) | inhibition [15] | inhibition [16] | SMILES | Activity (DLD-1 [4]) | viability at 24 h, 10 ug/ml [5] | Activity (MDA-MB-231) | inhibition at 10 µg/mL (DLD-1 [9]) | Activity (MIA PaCa-2) | Activity (A375P) | further results
10% | 1% | 9% | 3% | 29% | 18% | 6% | COc1ccccc1COc1ccccc1/C=C/C=C1\SC(=S)NC1=O | Non-toxic | 99.5% | inactive | 98% | Active | Active | inhibition [2]: 78.8%; IC50 [3]: 800 nM; inhibition [3]: Dose-dependent effect; Activity (DLD-1 [6]): Active; Activity (DLD-1 [7]): Active; fold change (FC) [12]: > 3; inhibition [13]: Active; inhibition [14]: 73%
30% | 5% | 14% | 7% | 0% | 27% | 0% | O=C1NC(=S)S/C1=C\c1cc(Br)ccc1OCc1ccccc1Br | Non-toxic | 98.1% | inactive | 95% | Active | Active | –
